Measurements taken from PubChem BioAssay AID298 (DTP/NCI, 2004).
Several values for one entry are separate records, joined by “and”; a condition that tells them apart may be missing. Equal values may be shown once. Records with an inconclusive call do not appear.

Tested on: MX-1 breast xenograft, intrarenal, nude mice, tumor weight
Assay: NCI In Vivo Anticancer Drug Screen. Data for tumor model Human Mammary Carcinoma MX-1 Xenograft (intrarenal inoculation) in NU/NU BALB/C (nude) mice
Conditions: endpoint: mean tumor weight change, higher = larger tumour
Outline: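 Antitumor activity is expressed as a T/C ratio. The treated group's tumor size or survival is compared against the vehicle-treated control group in mice bearing transplanted tumors.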

[1] = dose: 150.0 mg/kg/injection, schedule: Q04DX003 (ip), vehicle: suspension in saline
[2] = dose: 300.0 mg/kg/injection, schedule: Q04DX003 (ip), vehicle: suspension in saline
[3] = dose: 150.0 mg/kg/injection, schedule: Q04DX003 (ip), vehicle: saline
[4] = dose: 300.0 mg/kg/injection, schedule: Q04DX003 (ip), vehicle: saline

CC(C)C(N)C(=O)Nc1nncs1 (stereo unspecified)
T/C (dose: 150.0 mg/kg/injection, schedule: Q04DX003 (sc), vehicle: saline): 73 % of control
T/C (dose: 300.0 mg/kg/injection, schedule: Q04DX003 (sc), vehicle: saline): 77 % of control
T/C (dose: 600.0 mg/kg/injection, schedule: Q04DX003 (sc), vehicle: saline): 86 % of control
T/C (dose: 1200.0 mg/kg/injection, schedule: Q04DX003 (sc), vehicle: saline): 46 % of control

CCCC(=O)OCc1cc(=O)n(C)c2c3c4c(cc12)c(C)cc(=O)n4CO3
T/C (dose: 50.0 mg/kg/injection, schedule: Q01DX010 (sc), vehicle: Klucel (hydroxypropylcellulose) (HPC)): 79 % of control
T/C (dose: 100.0 mg/kg/injection, schedule: Q01DX010 (sc), vehicle: Klucel (hydroxypropylcellulose) (HPC)): 75 % of control
T/C (dose: 200.0 mg/kg/injection, schedule: Q01DX010 (sc), vehicle: Klucel (hydroxypropylcellulose) (HPC)): 64 % of control
T/C (dose: 400.0 mg/kg/injection, schedule: Q01DX010 (sc), vehicle: Klucel (hydroxypropylcellulose) (HPC)): 66 % of control
T/C (dose: 800.0 mg/kg/injection, schedule: Q01DX010 (sc), vehicle: Klucel (hydroxypropylcellulose) (HPC)): 61 % of control

C/C=C(\C)c1cc(=O)c2c(C)cc3c(c2o1)C(=O)c1c(O)c(C2CC(C)(N(C)C)C(OC(C)=O)C(C)O2)cc(C2CC(N(C)C)C(O)C(C)O2)c1C3=O (stereo unspecified)
T/C (dose: 2.5 mg/kg/injection, schedule: Q04DX003 (sc), vehicle: saline): 91 % of control
T/C (dose: 40.0 mg/kg/injection, schedule: Q04DX003 (sc), vehicle: saline): 39 % of control and 43 % of control

CC#CCOCC(O)CCl (stereo unspecified)
T/C [1]: 91 % of control and 97 % of control
T/C [2]: 97 % of control

CCOC(=O)C1=C(Nc2ccc(OC)cc2)C(N)=NC1=N
T/C (dose: 37.5 mg/kg/injection, schedule: Q04DX003 (ip), vehicle: suspension in saline): 76 % of control
T/C (dose: 75.0 mg/kg/injection, schedule: Q04DX003 (ip), vehicle: suspension in saline): 82 % of control
T/C [1]: 79 % of control and 103 % of control
T/C [2]: 47 % of control and 50 % of control
T/C (dose: 600.0 mg/kg/injection, schedule: Q04DX003 (ip), vehicle: suspension in saline): 32 % of control

O=C(Oc1ccccc1)c1cc(O)c(O)c(O)c1
T/C [3]: 101 % of control
T/C [4]: 55 % of control

COc1cc2c(cc1OC)-c1c3c(cc4c1[C@@H](C2)N(C)CC4)OCO3
T/C (dose: 37.5 mg/kg/injection, schedule: Q04DX003 (ip), vehicle: distilled water + alcohol): 56 % of control
T/C (dose: 75.0 mg/kg/injection, schedule: Q04DX003 (ip), vehicle: distilled water + alcohol): 55 % of control
T/C (dose: 150.0 mg/kg/injection, schedule: Q04DX003 (ip), vehicle: distilled water + alcohol): 68 % of control

CC(=O)OCC(=O)[C@@]12OC(C)(C)O[C@@H]1C[C@H]1[C@@H]3CC(C=O)=C4C=C(OCCCl)CC[C@]4(C)[C@@]3(F)[C@@H](O)C[C@@]12C
T/C (dose: 25.0 mg/kg/injection, schedule: Q04DX003 (sc), vehicle: Klucel (hydroxypropylcellulose) (HPC)): 93 % of control
T/C (dose: 50.0 mg/kg/injection, schedule: Q04DX003 (sc), vehicle: Klucel (hydroxypropylcellulose) (HPC)): 81 % of control
T/C (dose: 100.0 mg/kg/injection, schedule: Q04DX003 (sc), vehicle: Klucel (hydroxypropylcellulose) (HPC)): 71 % of control
T/C (dose: 200.0 mg/kg/injection, schedule: Q04DX003 (sc), vehicle: Klucel (hydroxypropylcellulose) (HPC)): 78 % of control

Nc1ccc(C(=O)Nc2ccccc2N)cc1
T/C (dose: 25.0 mg/kg/injection, schedule: Q01DX010 (ip), vehicle: saline with Tween-80): 91 % of control
T/C (dose: 50.0 mg/kg/injection, schedule: Q01DX010 (ip), vehicle: saline with Tween-80): 87 % of control
T/C (dose: 100.0 mg/kg/injection, schedule: Q01DX010 (ip), vehicle: saline with Tween-80): 84 % of control
T/C (dose: 200.0 mg/kg/injection, schedule: Q01DX010 (ip), vehicle: saline with Tween-80): 36 % of control

OCC(O)C(O)C(O)C(O)CO (stereo unspecified)
T/C (dose: 75.0 mg/kg/injection, schedule: Q04DX003 (ip), vehicle: saline): 75 % of control
T/C [3]: 103 % of control
T/C [4]: 91 % of control
T/C (dose: 600.0 mg/kg/injection, schedule: Q04DX003 (ip), vehicle: saline): 94 % of control
T/C (dose: 1200.0 mg/kg/injection, schedule: Q04DX003 (ip), vehicle: saline): 70 % of control
